Several values for one entry are separate records, joined by “and”; a condition that tells them apart may be missing. Equal entries are not always repeated. Entries after “also recorded” stand apart in the source; their conditions may differ. Where two headings read alike, the source gives them in different places.
Experiments:
butyrylcholinesterase = target: T1, butyrylcholinesterase (Equus caballus, UniProt P81908); experiment: Mechanism of inhibition, dependence log% A vs. time; assay type: biochemical, equine; settings: inhibitor 3, 6, 9 µM; prolonged incubation
T1 construct: butyrylcholinesterase was from an equine serum; purchased Sigma-Aldrich (Prague, Czech Republic); host or cells: equine serum (natural source)
T1 sequence (P81908 whole entry): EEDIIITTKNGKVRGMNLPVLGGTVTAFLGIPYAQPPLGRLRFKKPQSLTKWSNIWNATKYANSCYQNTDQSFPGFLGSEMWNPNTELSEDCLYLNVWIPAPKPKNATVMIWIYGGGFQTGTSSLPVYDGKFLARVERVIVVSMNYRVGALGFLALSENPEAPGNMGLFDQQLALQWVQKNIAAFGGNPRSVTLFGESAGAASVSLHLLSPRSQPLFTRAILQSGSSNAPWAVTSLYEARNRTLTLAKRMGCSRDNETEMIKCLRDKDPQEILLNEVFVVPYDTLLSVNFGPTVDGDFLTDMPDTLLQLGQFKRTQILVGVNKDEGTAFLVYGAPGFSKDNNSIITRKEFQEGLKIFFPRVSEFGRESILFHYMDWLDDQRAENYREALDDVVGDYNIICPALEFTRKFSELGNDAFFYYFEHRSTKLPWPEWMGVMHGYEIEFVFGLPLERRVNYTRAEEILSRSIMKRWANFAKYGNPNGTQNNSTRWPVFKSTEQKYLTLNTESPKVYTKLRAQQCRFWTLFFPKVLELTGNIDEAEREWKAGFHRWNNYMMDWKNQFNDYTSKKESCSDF
Experimental: (§1) The determination of mechanism of enzyme inhibition was described in detail previously. The inhibitor 5c was evaluated at three different concentrations for each enzyme.
(§2) Based on the changes of enzyme activity in the presence of tested inhibitor during prolonged incubation, it is possible to distinguish reversible, pseudo-irreversible and irreversible inhibition. In the case of reversible inhibition, the inhibitor is bound to the enzyme for a short period of time, the activity of the enzyme goes down immediately and, after dissociation of complex enzyme-inhibitor, the enzyme activity is restored. […] For irreversible inhibition, covalent and permanent bond between enzyme and inhibitor is typical and therefore the enzyme becomes inactivated. Irreversible inhibitor decreases enzyme activity successively and the dependence log% A vs. time in the presence of inhibitor is linear.
(§3) The procedure of measurement and data evaluation were in detail described previously in the reference. From the dependence log% A vs. time the mechanism of action of tested inhibitor can be deduced.
Figure 2 The dependence log% A vs. time. Enzyme: butyrylcholinesterase, derivative 5c, concentration of inhibitor: 3 µM (rhomb), 6 µM (square), 9 µM (triangle).

[1] = target: T2, AChE from electric eel (EeAChE) (Electrophorus electricus, UniProt O42275); experiment: Inhibition of AChE, modified Ellman's spectrophotometric method; assay type: biochemical, electric eel (Electrophorus electricus L.)
T2 construct: Acetylcholinesterase was obtained from electric eel (Electrophorus electricus L.); purchased Sigma-Aldrich (Prague, Czech Republic); host or cells: electric eel (natural source)
T2 sequence (O42275 24-633): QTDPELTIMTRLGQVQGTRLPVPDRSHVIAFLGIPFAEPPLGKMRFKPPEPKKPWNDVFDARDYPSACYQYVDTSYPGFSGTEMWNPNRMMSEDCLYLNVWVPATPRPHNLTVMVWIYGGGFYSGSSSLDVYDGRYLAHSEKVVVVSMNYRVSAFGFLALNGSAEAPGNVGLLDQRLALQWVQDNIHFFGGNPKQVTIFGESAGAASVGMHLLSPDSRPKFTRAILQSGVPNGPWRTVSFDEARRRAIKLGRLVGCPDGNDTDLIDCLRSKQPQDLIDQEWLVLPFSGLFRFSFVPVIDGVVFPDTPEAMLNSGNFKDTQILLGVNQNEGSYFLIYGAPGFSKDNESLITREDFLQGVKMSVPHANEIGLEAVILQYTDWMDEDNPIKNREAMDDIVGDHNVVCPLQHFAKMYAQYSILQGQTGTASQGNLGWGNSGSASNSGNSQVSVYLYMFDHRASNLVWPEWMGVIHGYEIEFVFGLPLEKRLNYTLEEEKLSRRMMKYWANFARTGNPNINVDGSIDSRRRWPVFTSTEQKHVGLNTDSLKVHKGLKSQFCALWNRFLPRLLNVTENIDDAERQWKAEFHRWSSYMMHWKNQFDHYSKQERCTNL
Experimental: (§4) The IC50 values were determined using the spectrophotometric Ellman’s method modified according to Zdražilová et al., which is a simple, rapid and direct method to determine the SH and -S-S- group content in proteins. This method is widely used for the screening of the efficiency of cholinesterases inhibitors. The enzymatic activity is measured indirectly by quantifying the concentration of the 5-thio-2-nitrobenzoic acid ion formed in the reaction between the thiol reagent 5,5′-dithio-bis(2-nitrobenzoic acid) and thiocholine, a product of substrate hydrolysis (i.e., acetylthiocholine; ATCH) by cholinesterases.
(§5) The enzyme activity in final reaction mixture (2000 µL) was 0.2 U/mL, concentration of acetylthiocholine (or butyrylthiocholine, BTCH) 40 µM and concentration of 5,5′-dithio-bis(2-nitrobenzoic acid) 0.1 mM for all reactions. The tested compounds were dissolved in DMSO and then diluted in demineralized water to the concentration of 1 µM. […] All measurements were carried in triplicate and the average values of reaction rate (v0-uninhibited reaction, vi-inhibited reaction) were used for construction of the dependence v0/vi vs. concentration of inhibitor. From obtained equation of regression curve, the value of IC50 was calculated (based on the definition of IC50).
(§6) Acetylcholinesterase was obtained from electric eel (Electrophorus electricus L.) and butyrylcholinesterase was from an equine serum.
(§7) Thirty-six benzamides 1–4l were evaluated as potential inhibitors of AChE from electric eel (EeAChE) and BuChE from equine serum (EqBuChE) using Ellman’s spectrophotometric method modified according to Zdražilová et al.. Their efficacy is expressed as IC50, i.e., the concentration required for 50% inhibition of the enzymatic activity. Based on inhibition of both cholinesterases, we calculated selectivity indexes (SI) as the ratio of IC50 value for AChE/IC50 value for BuChE to express the selectivity quantitatively (Table 1).

AChE = target: T3, AChE (Electrophorus electricus, UniProt O42275); experiment: Type of inhibition, Lineweaver-Burk plot; assay type: biochemical, electric eel (Electrophorus electricus L.); settings: ATCH 20–80 µM
T3 construct: Acetylcholinesterase was obtained from electric eel (Electrophorus electricus L.); purchased Sigma-Aldrich (Prague, Czech Republic); host or cells: electric eel (natural source)
T3 sequence (O42275 24-633): as above
Experimental: (§8) For the determination of the type of inhibition Lineweaver-Burk plot was used and the measuring procedure was similar to that for the determination of IC50 (modified Ellman’s method was used). The enzyme activity in the final reaction mixture (2000 µL) was 0.2 U/mL, a concentration of ATCH or BTCH 20–80 µM and a concentration of 5,5′-dithio-bis(2-nitrobenzoic acid) 0.1 mM. For each of the substrate concentrations, four different concentrations of inhibitor were chosen. The dependence absorbance vs. time was observed and the reaction rate was calculated. All measurements were carried in duplicate and the average values of reaction rate were used for the construction of the Lineweaver-Burk plot. From obtained equations of regression curves, the values of KM (Michaelis constant) and Vm (maximum velocity) were calculated and the type of inhibition was evaluated.
(§9) The type of inhibition could be distinguished based on the Lineweaver-Burk plot and the comparison of the kinetic parameters KM and Vm of uninhibited and inhibited reactions. The diagnostic criterion for competitive inhibition is that Vm is unaffected by inhibitor and KM for inhibited reaction is increased. All lines in Lineweaver-Burk plot share a common y-intercept. For non-competitive inhibitor KM is unchanged, but Vm of inhibited reaction is decreased. All lines in Lineweaver-Burk plot share a common x-intercept. […]

acetylcholinesterase = target: T4, acetylcholinesterase (Electrophorus electricus, UniProt O42275); experiment: Mechanism of inhibition, dependence log% A vs. time; assay type: biochemical, electric eel (Electrophorus electricus L.); settings: inhibitor 10, 30, 90 µM; prolonged incubation
T4 construct: Acetylcholinesterase was obtained from electric eel (Electrophorus electricus L.); purchased Sigma-Aldrich (Prague, Czech Republic); host or cells: electric eel (natural source)
T4 sequence (O42275 24-633): as above
Experimental: as §1, §2, §3
Figure 1 The dependence log% A vs. time. Enzyme: acetylcholinesterase, derivative 5c, concentration of inhibitor: 10 µM (rhomb), 30 µM (square), 90 µM (triangle).

BuChE = target: T5, BuChE (Equus caballus, UniProt P81908); experiment: Type of inhibition, Lineweaver-Burk plot; assay type: biochemical, equine; settings: BTCH 20–80 µM
T5 construct: butyrylcholinesterase was from an equine serum; purchased Sigma-Aldrich (Prague, Czech Republic); host or cells: equine serum (natural source)
T5 sequence (P81908 whole entry): as the sequence (P81908 whole entry) above
Experimental: as §8, §9

[2] = target: T6, BuChE from equine serum (EqBuChE) (Equus caballus, UniProt P81908); experiment: Inhibition of BuChE, modified Ellman's spectrophotometric method; assay type: biochemical; settings: for Enhancement of BuChE inhibition compared to parent 3k: ratio of IC50 values vs parent 3k
T6 construct: butyrylcholinesterase was from an equine serum; purchased Sigma-Aldrich (Prague, Czech Republic); host or cells: equine serum (natural source)
T6 sequence (P81908 whole entry): as above
Experimental: as §4, §5, §6, §7

[3] = target: T6, BuChE from equine serum (EqBuChE); settings: mean ± SD; cited from earlier work
[4] = target: T2, AChE from electric eel (EeAChE); settings: SI = IC50 for AChE/IC50 for BuChE; cited from earlier work

Compound | Mechanism of inhibition (BuChE) (butyrylcholinesterase) | Selectivity AChE/BuChE ([1]; SI = IC50 for AChE/IC50 for BuChE, SI lower than 1 means selectivity for AChE) | IC50 ([1]; mean ± SD, n = three experiments, read-out: IC50 (EeAChE)) [µM] | Type of inhibition (AChE) (AChE) | Mechanism of inhibition (AChE) (acetylcholinesterase) | Type of inhibition (BuChE) (BuChE) | IC50 ([2]; mean ± SD, n = three experiments, read-out: IC50 (EqBuChE)) | Improvement of activity against BuChE compared to phosphate 5a ([2]; phosphite 5c vs phosphate 5a) [times] | Enhancement of BuChE inhibition compared to parent 3k [2] | IC50 [3] [µM] | Selectivity AChE/BuChE [4] | Enhancement of AChE inhibition compared to parent 3k ([1]; ratio of IC50 values vs parent 3k) [times]
CCOP(OCC)Oc1cc(Cl)ccc1C(=O)Nc1ccc(C(F)(F)F)cc1 [Compound 5c, 5-Chloro-2-{[4-(trifluoromethyl)phenyl]carbamoyl}phenyl diethyl phosphite] | pseudo-irreversible inhibitor; also recorded: pseudo-irreversible inhibition | 28.00 | 66.4 ± 1.14 | mixed inhibition; also recorded: mixed inhibitory mechanism | pseudo-irreversible inhibitor; also recorded: pseudo-irreversible inhibition | mixed inhibition; also recorded: mixed inhibitory mechanism | 2.4 µM and 2.37 µM | 4.2 | 84.2 times | – | – | –
CCOP(=O)(OCC)Oc1cc(Cl)ccc1C(=O)Nc1ccc(C(F)(F)F)cc1 [Compound 5a] | – | – | – | – | – | – | – | – | up to 20.3 times | 9.84 ± 0.06 | 8.77 | –
CCOP(=S)(OCC)Oc1cc(Cl)ccc1C(=O)Nc1ccc(C(F)(F)F)cc1 [Compound 5b] | – | – | – | – | – | – | – | – | up to 20.3 times | – | 0.50 | 6.6

Source: PMC6920847, “2-Hydroxy-N-phenylbenzamides and Their Esters Inhibit Acetylcholinesterase and Butyrylcholinesterase” (Biomolecules, 2019)
